Measurements reported in patent US6399574B1 (priority 1997, dated 2002).
Values joined by “and” are separate entries in the source; they are usually repeats but may differ in a detail not shown here. Equal entries are not always repeated.

Assays:
[1] = system: Frings audiogenic seizure-susceptible mice; conditions: mouse, in vivo
[2] = system: Frings audiogenic seizure susceptible mice; conditions: mouse, in vivo

Structure (SMILES)	toxicity (rotorod) [1]	animals protected [2]
CC1(C)O[C@@H]2[C@@H](CO[C@@]3(COS(N)(=O)=O)OC(C)(C)O[C@@H]23)O1 [Topiramate, reference compound]	no marked	
NC(=O)OCC(COC(N)=O)c1ccccc1 [Felbamate, reference compound]	no marked	5/8 protected and 4/8 protected
